This note sets out measurements from PubChem BioAssay AID328 (DTP/NCI, 2004).

SMILES strings stand for the structures. Where “and” joins values, the source holds several entries; their conditions need not be identical. Equal entries are not always repeated. Inconclusive results and toxic doses are left out.

This experiment has as its system BDF1 mice, P388 leukemia ip, median survival T/C. Briefly: NCI In Vivo Anticancer Drug Screen. Data for tumor model P388 Leukemia (intraperitoneal) in B6D2F1 (BDF1) mice. Particulars: endpoint: median survival time, higher = longer survival. Put shortly: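 Vehicle-dosed animals serve as the reference; survival of compound-dosed, tumour-implanted mice is divided by it.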

Where [1] appears, read: dose: 25.0 mg/kg/injection, schedule: Q01DX009 (ip), vehicle: saline with Tween-80.
The mark [2] stands for this setting: dose: 50.0 mg/kg/injection, schedule: Q01DX009 (ip), vehicle: saline with Tween-80.
Setting [3] is: dose: 100.0 mg/kg/injection, schedule: Q01DX009 (ip), vehicle: saline with Tween-80.
The mark [4] stands for this setting: dose: 100.0 mg/kg/injection, schedule: Q04DX003 (ip), vehicle: saline with Tween-80.
The mark [5] stands for this setting: dose: 200.0 mg/kg/injection, schedule: Q01DX009 (ip), vehicle: saline with Tween-80.
Where [6] appears, read: dose: 200.0 mg/kg/injection, schedule: Q04DX003 (ip), vehicle: saline with Tween-80.
The mark [7] stands for this setting: dose: 400.0 mg/kg/injection, schedule: Q04DX003 (ip), vehicle: saline with Tween-80.
The mark [8] stands for this setting: dose: 12.5 mg/kg/injection, schedule: Q01DX009 (ip), vehicle: saline.
Setting [9] is: dose: 25.0 mg/kg/injection, schedule: Q01DX009 (ip), vehicle: saline.
The mark [10] stands for this setting: dose: 50.0 mg/kg/injection, schedule: Q01DX009 (ip), vehicle: saline.
[11] abbreviates: dose: 25.0 mg/kg/injection, schedule: Q04DX003 (ip), vehicle: saline with Tween-80.
Where [12] appears, read: dose: 50.0 mg/kg/injection, schedule: Q04DX003 (ip), vehicle: saline.
Setting [13] is: dose: 100.0 mg/kg/injection, schedule: Q04DX003 (ip), vehicle: saline.
Setting [14] is: dose: 50.0 mg/kg/injection, schedule: Q04DX003 (ip), vehicle: saline with Tween-80.

Consider `O=[N+]([O-])c1ccc2c(c1)c(-c1cc(Cl)cc(Cl)c1)nc1ccccc12`, for which the T/C by setting is: under setting [1], 108 % of control; under setting [2], 97 % of control; under setting [3], 101 % of control; under setting [4], 99 % of control; under setting [5], 90 % of control; under setting [6], 88 % of control. The T/C runs as follows: (dose: 400.0 mg/kg/injection, schedule: Q01DX009 (ip), vehicle: saline with Tween-80) 99 % of control; under setting [7], 107 % of control.

Turning to `OCC1C2CCC(C2)C1CO` (centres undefined), the T/C under setting [8] is 105 % of control; the T/C under setting [9] was 110 % of control; the T/C under setting [10] was 115 % of control; the T/C (dose: 75.0 mg/kg/injection, schedule: Q01DX009 (ip), vehicle: saline) is 115 % of control; the T/C (dose: 115.0 mg/kg/injection, schedule: Q01DX009 (ip), vehicle: saline) is 95 % of control.

Consider `C[N+](C)(C)CCCSC1=NCCN1`, for which the T/C runs as follows: (dose: 6.25 mg/kg/injection, schedule: Q01DX009 (ip), vehicle: saline) 106 % of control; under setting [8], 107 % of control; under setting [9], 103 % of control.

`COC(=O)/C(C#N)=C/c1c[nH]c2ccccc12`: the T/C reads like this: under setting [4], 100 % of control; under setting [6], 109 % of control; under setting [7], 100 % of control.

Take `O=C(CCCc1ccc(N(CCCl)CCCl)cc1)Nc1ccccc1`: the T/C by setting is: (dose: 25.0 mg/kg/injection, schedule: Q01DX009 (ip), vehicle: saline sonified) 109 % of control; under setting [11], 120 % of control; (dose: 50.0 mg/kg/injection, schedule: Q01DX009 (ip), vehicle: saline sonified) 100 % of control; (dose: 100.0 mg/kg/injection, schedule: Q01DX009 (ip), vehicle: saline sonified) 113 % of control; under setting [4], 210 % of control.

With `C=CCCCCn1c2ccccc2c2c(C)c3cnccc3c(C)c21`, the T/C is 109 % of control under setting [4], 100 % of control under setting [6] and 118 % of control under setting [7].

`O=c1[nH]c2cc(Cl)ccc2c(CCl)c1Cl`: the T/C is 109 % of control (dose: 25.0 mg/kg/injection, schedule: Q04DX003 (ip), vehicle: saline); 104 % of control under setting [12]; 109 % of control (dose: 56.25 mg/kg/injection, schedule: Q01DX001 (ip), vehicle: saline with Tween-80); 100 % of control under setting [13]; 113 % of control (dose: 112.5 mg/kg/injection, schedule: Q01DX001 (ip), vehicle: saline with Tween-80); 109 % of control (dose: 225.0 mg/kg/injection, schedule: Q01DX001 (ip), vehicle: saline with Tween-80).

Turning to `COC1C(CO)OC(n2cnc3c(=S)nc(N)[nH]c32)C1O` (centres undefined), the T/C under setting [4] is 104 % of control; the T/C under setting [6] is 104 % of control; the T/C (dose: 600.0 mg/kg/injection, schedule: Q04DX003 (ip), vehicle: saline with Tween-80) was 122 % of control.

On to `O=S1(=O)CCN(Cc2ccccc2)CC1`, for which the T/C is, setting by setting: (dose: 50.0 mg/kg/injection, schedule: Q01DX009 (ip), vehicle: Klucel (hydroxypropylcellulose) (HPC)) 96 % of control; (dose: 100.0 mg/kg/injection, schedule: Q01DX009 (ip), vehicle: Klucel (hydroxypropylcellulose) (HPC)) 96 % of control; (dose: 200.0 mg/kg/injection, schedule: Q01DX009 (ip), vehicle: Klucel (hydroxypropylcellulose) (HPC)) 91 % of control.

As to `CCCCN=CC(C)(C)NCCCC`, the T/C under setting [10] was 91 % of control and 99 % of control; the T/C under setting [12] is 103 % of control; the T/C (dose: 100.0 mg/kg/injection, schedule: Q01DX009 (ip), vehicle: saline) is 98 % of control and 107 % of control; the T/C under setting [13] is 103 % of control; the T/C (dose: 200.0 mg/kg/injection, schedule: Q04DX003 (ip), vehicle: saline) was 100 % of control.

Regarding `CCOC(=O)/C=C(\C)SC1=CC(=O)C=CC1=O`, the T/C by setting is: (dose: 100.0 mg/kg/injection, schedule: Q01DX001 (ip), vehicle: saline with Tween-80) 106 % of control; (dose: 200.0 mg/kg/injection, schedule: Q01DX001 (ip), vehicle: saline with Tween-80) 100 % of control.

As to `CCc1ccc(O)c(C(=O)c2c[nH]c(=O)c(C(N)=O)c2)c1`, the T/C is 103 % of control (dose: 50.0 mg/kg/injection, schedule: Q04DX002 (ip), vehicle: saline with Tween-80); 94 % of control (dose: 100.0 mg/kg/injection, schedule: Q04DX002 (ip), vehicle: saline with Tween-80); 99 % of control (dose: 200.0 mg/kg/injection, schedule: Q04DX002 (ip), vehicle: saline with Tween-80).

For `CO[C@H](C)[C@](O)(C(=O)OCC1=CCN2CC[C@@H](O)[C@H]12)C(C)C`, the T/C was 111 % of control (dose: 25.0 mg/kg/injection, schedule: Q01DX010 (ip), vehicle: carboxymethylcellulose (CMC)); 111 % of control (dose: 50.0 mg/kg/injection, schedule: Q01DX010 (ip), vehicle: carboxymethylcellulose (CMC)); 111 % of control (dose: 100.0 mg/kg/injection, schedule: Q01DX010 (ip), vehicle: carboxymethylcellulose (CMC)).

`CC(=O)OC1=C2OC(=O)C3(C2C=CC=C1)C1C=CC=CC13` (centres undefined): the T/C was 116 % of control under setting [2], 116 % of control under setting [3] and 120 % of control under setting [5].

Take `CC(=O)OC1C=CCC2C(=O)C34CC=CC(OC(C)=O)C3(C(=O)c3ccccc3C4=O)C(=O)C12` (centres undefined): the T/C (dose: 3.12 mg/kg/injection, schedule: Q01DX009 (ip), vehicle: saline) was 95 % of control; the T/C under setting [8] is 95 % of control; the T/C under setting [9] is 114 % of control.

Regarding `CC1(C)CCC2(CC1)CC(=O)OC2=O`, the T/C runs as follows: under setting [4], 95 % of control; under setting [6], 87 % of control; under setting [7], 104 % of control.

Consider `CC1(c2cccs2)NC(=O)N(Cl)C1=O` (centres undefined), for which the T/C runs as follows: under setting [1], 97 % of control; under setting [11], 94 % of control; under setting [2], 97 % of control; under setting [14], 102 % of control; under setting [3], 108 % of control; under setting [4], 104 % of control and 107 % of control. Moreover, the T/C reads like this: under setting [5], 108 % of control; under setting [6], 109 % of control; under setting [7], 107 % of control.

For the compound `Cn1nc(N)c2ncc(C(Cl)(Cl)Cl)nc21`, the T/C was 91 % of control under setting [1], 105 % of control under setting [14] and 90 % of control under setting [4].

For the compound `CC(=O)OCC(=O)[C@@]1(O)CC[C@H]2[C@@H]3CCC4=CC(=O)CC[C@]4(C)[C@H]3C(=O)C[C@@]21C`, the T/C was 95 % of control under setting [2]; 112 % of control under setting [3]; 100 % of control under setting [4]; 100 % of control under setting [5]; 86 % of control under setting [6].

Take `C1CC2CCC1CNC2`: the T/C runs as follows: under setting [1], 95 % of control; under setting [2], 100 % of control; under setting [3], 100 % of control.

As to `O=C(C1CC2CCC1C2)C1CC2CCC1C2` (centres undefined), the T/C (dose: 100.0 mg/kg/injection, schedule: Q01DX009 (ip), vehicle: other) was 95 % of control; the T/C (dose: 100.0 mg/kg/injection, schedule: Q04DX003 (ip), vehicle: Klucel (hydroxypropylcellulose) (HPC)) was 100 % of control; the T/C (dose: 200.0 mg/kg/injection, schedule: Q04DX003 (ip), vehicle: Klucel (hydroxypropylcellulose) (HPC)) is 108 % of control; the T/C (dose: 400.0 mg/kg/injection, schedule: Q04DX003 (ip), vehicle: Klucel (hydroxypropylcellulose) (HPC)) was 104 % of control.

Regarding `O.[Cu].[Cu]`, the T/C (dose: 6.25 mg/kg/injection, schedule: Q01DX009 (ip), vehicle: Klucel (hydroxypropylcellulose) (HPC)) is 90 % of control; the T/C (dose: 6.25 mg/kg/injection, schedule: Q04DX003 (ip), vehicle: Klucel (hydroxypropylcellulose) (HPC)) is 90 % of control; the T/C (dose: 12.5 mg/kg/injection, schedule: Q01DX009 (ip), vehicle: Klucel (hydroxypropylcellulose) (HPC)) was 110 % of control; the T/C (dose: 12.5 mg/kg/injection, schedule: Q04DX003 (ip), vehicle: Klucel (hydroxypropylcellulose) (HPC)) was 90 % of control; the T/C (dose: 25.0 mg/kg/injection, schedule: Q01DX009 (ip), vehicle: Klucel (hydroxypropylcellulose) (HPC)) was 95 % of control; the T/C (dose: 25.0 mg/kg/injection, schedule: Q04DX003 (ip), vehicle: Klucel (hydroxypropylcellulose) (HPC)) was 118 % of control.

Regarding `C1=CC2C3=CC1C=CC32` (centres undefined), the T/C was 91 % of control (dose: 18.75 mg/kg/injection, schedule: Q04DX003 (ip), vehicle: Klucel (hydroxypropylcellulose) (HPC)); 95 % of control (dose: 37.5 mg/kg/injection, schedule: Q04DX003 (ip), vehicle: Klucel (hydroxypropylcellulose) (HPC)); 91 % of control (dose: 75.0 mg/kg/injection, schedule: Q04DX003 (ip), vehicle: Klucel (hydroxypropylcellulose) (HPC)).
